{"source": "patent US4185089A", "about": "“Immunological adjuvant constituted by the p-amino-phenyl derivative of N-acetyl-muramyl-L-alanyl-D-isoglutamine” (Agence Nationale de Valorisation de la Recherche (ANVAR), priority 1976, dated 1980)", "key": {"[1]": {"test_system": "female Hartley guinea pigs", "assay": "Adjuvant test in oily phase: specific serum antibody level to ovalbumin", "type": "in vivo, guinea pig", "experimental": "In these tests, the growth of the specific antibody level of a given antigen when the latter is injected, with or without the adjuvant compound according to the invention, in the midst of a water and oil emulsion was followed.\n(§1) The tests were carried out on female Hartley guinea pigs of 350 g. The administration was done by intradermal injection in the plantar pad of each of the rear paws. The ovalbumin (constituting the antigen) in the dose of 0.5 mg was prepared in 0.1 ml of an emulsion of saline isotonic solution, in an oily phase constituted either by the Freund incomplete adjuvant (FIA), or by the Freund complete adjuvant (FCA) formed by the FIA to which is added 0.1 mg of whole cells of Mycobacterium smegmatis. The compound according to the invention was administered in the dose of 0.1 mg added in the emulsion containing the FIA.\nTwenty one days after the injection, the animals were bled. On the serum collected, the specific antibody content of the ovalbumin was measured by precipitation of the antibody-antigen complex in the equivalence zone. The amount of protein nitrogen contained in this precipitate was evaluated according to the Folin method. These values express the amounts, in micrograms, of nitrogen precipitable by the antigen, per ml of serum."}, "[2]": {"test_system": "female Hartley guinea pigs", "assay": "Adjuvant test in oily phase: delayed hypersensitivity cutaneous test to ovalbumin", "type": "in vivo, guinea pig", "experimental": "as §1\nEighteen days after this immunisation, possible reactions of delayed hypersensibility to the antigen were sought by injecting by the intradermal route 0.005 mg of ovalbumin into the side of the animals, and the reaction at the point of injection was observed 48 hours later. The diameter in mm of the thus provoked reaction was measured."}, "[3]": {"test_system": "mice", "assay": "Toxicity by intravenous injection in mice", "type": "in vivo", "conditions": "mice aged two months", "source_text": "The toxicity of the product according to the invention was studied by intravenous injection in mice aged two months."}, "[4]": {"test_system": "rabbits", "assay": "Pyrogenicity on rabbits (French Pharmacopea protocol)", "type": "in vivo", "conditions": "for Rise in temperature °C.: individual animals (batch of three), listed as product according to the invention", "protocol": "The pyrogenic effect of the product according to the invention on rabbits was studied, following the protocol of the French Pharmacopea, 9e edition, II-235. Each test was carried out on a batch of three rabbits. The administration was first done by the subcutaneous route, then by the intravenous route. The results of these tests, that is to say the increase in temperature in the treated animals, were as follows: […]"}}, "note": "Several values for one entry are separate records, joined by “and”; a condition that tells them apart may be missing. Identical values can stand only once."}
{"smiles": "CC(=O)NC1C(Oc2ccc(N)cc2)OC(CO)C(O)C1O[C@H](C)C(=O)N[C@@H](C)C(=O)N[C@H](CCC(=O)O)C(N)=O", "note": "(stereo partly drawn) [p-amino-phenyl-Mur-NAc-L-Ala-D-iso-Gln, 2-(p-amino-phenyl-2-acetamido-2-deoxy-3-O-D-glucopyranosyl)-D-propionyl-L-alanyl-D-isoglutamine]", "values": [{"measurement": "Effect on level of antibodies to the administered antigen (in words)", "setting": "[1]; administered in oily emulsion", "result": "distinctly facilitates the increase in the level of antibodies"}, {"measurement": "Seric antibodies (nitrogen precipitable by the antigen per ml of serum)", "setting": "[1]; guinea pigs, ovalbumin 0.5 mg intradermal in water-in-oil emulsion, adjuvant 100 μg, serum 21 days after injection, average values", "result": 3500, "unit": "µg/mL"}, {"measurement": "Delayed-type hypersensitivity reaction to the antigen (in words)", "setting": "[2]; administered in oily emulsion", "result": "induces a hypersensitivity reaction of the delayed type"}, {"measurement": "Cutaneous test diameter in mm", "setting": "[2]; guinea pigs, challenge 0.005 mg ovalbumin intradermal 18 days after immunisation, read 48 hours later, adjuvant 100 μg", "result": "19.5±4.5", "unit": "mm"}, {"measurement": "lethal dose (LD50)", "setting": "[3]", "result": "very much higher than that of the dosage at which the product manifests its adjuvant properties"}, {"measurement": "Pyrogenicity (in words)", "setting": "[4]; doses where adjuvant properties are manifested", "result": "apyrogenic"}, {"measurement": "Rise in temperature °C.", "setting": "[4]; intravenous, 1.0 mg/kg", "result": "0 °C and 0.4 °C and 0.6 °C"}, {"measurement": "Rise in temperature °C.", "setting": "[4]; sub-cutaneous, 0.100 mg/kg, 0.1 mg/kg", "result": "0 °C (2×) and 0.1 °C"}, {"measurement": "Rise in temperature °C.", "setting": "[4]; sub-cutaneous, 0.500 mg/kg, 0.5 mg/kg", "result": "0 °C and 0.2 °C and 0.1 °C"}]}
